Reference: ChEMBL document CHEMBL4507266, “Data for DCP probe BAY-784” (2021)

Assays:
[1] = target: Ephrin type-A receptor 6 (Homo sapiens) (UniProt Q9UF33); conditions: Compound concentration 1000.0 nM
[2] = target: Focal adhesion kinase 1 (Homo sapiens) (UniProt Q05397); conditions: Compound concentration 1000.0 nM
[3] = target: Serine/threonine-protein kinase WNK1 (Homo sapiens) (UniProt Q9H4A3); conditions: Compound concentration 1000.0 nM
[4] = target: Mitogen-activated protein kinase kinase kinase 19 (Homo sapiens) (UniProt Q56UN5); conditions: Compound concentration 1000.0 nM
[5] = test system: Mast/stem cell growth factor receptor Kit (Homo sapiens), P10721 [D816V]; conditions: Compound concentration 1000.0 nM
[6] = target: Protein kinase C eta type (Homo sapiens) (UniProt P24723); conditions: Compound concentration 1000.0 nM
Protein kinase C eta type (Homo sapiens), sequence (P24723 whole entry): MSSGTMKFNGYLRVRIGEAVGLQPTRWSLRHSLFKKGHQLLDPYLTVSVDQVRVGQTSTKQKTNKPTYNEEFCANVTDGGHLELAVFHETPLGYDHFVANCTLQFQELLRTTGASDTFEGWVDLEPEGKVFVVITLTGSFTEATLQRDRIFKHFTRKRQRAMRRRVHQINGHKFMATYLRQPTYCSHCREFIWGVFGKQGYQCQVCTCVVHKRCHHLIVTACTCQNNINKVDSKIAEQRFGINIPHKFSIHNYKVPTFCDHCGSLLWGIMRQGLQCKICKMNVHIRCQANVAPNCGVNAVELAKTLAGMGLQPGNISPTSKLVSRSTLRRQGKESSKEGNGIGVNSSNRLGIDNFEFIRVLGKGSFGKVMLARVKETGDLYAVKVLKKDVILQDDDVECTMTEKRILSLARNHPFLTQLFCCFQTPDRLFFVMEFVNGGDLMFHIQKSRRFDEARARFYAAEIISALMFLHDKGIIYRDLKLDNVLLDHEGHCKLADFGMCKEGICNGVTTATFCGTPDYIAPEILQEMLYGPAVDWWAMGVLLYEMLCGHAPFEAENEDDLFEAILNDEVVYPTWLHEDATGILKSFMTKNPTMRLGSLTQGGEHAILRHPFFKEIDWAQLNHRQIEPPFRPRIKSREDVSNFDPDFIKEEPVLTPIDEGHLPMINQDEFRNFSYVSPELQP

[7] = target: Myotonin-protein kinase (Homo sapiens) (UniProt Q09013); conditions: Compound concentration 1000.0 nM
[8] = target: Serine/threonine-protein kinase 32B (Homo sapiens) (UniProt Q9NY57); conditions: Compound concentration 1000.0 nM
Serine/threonine-protein kinase 32B (Homo sapiens), sequence (Q9NY57 whole entry): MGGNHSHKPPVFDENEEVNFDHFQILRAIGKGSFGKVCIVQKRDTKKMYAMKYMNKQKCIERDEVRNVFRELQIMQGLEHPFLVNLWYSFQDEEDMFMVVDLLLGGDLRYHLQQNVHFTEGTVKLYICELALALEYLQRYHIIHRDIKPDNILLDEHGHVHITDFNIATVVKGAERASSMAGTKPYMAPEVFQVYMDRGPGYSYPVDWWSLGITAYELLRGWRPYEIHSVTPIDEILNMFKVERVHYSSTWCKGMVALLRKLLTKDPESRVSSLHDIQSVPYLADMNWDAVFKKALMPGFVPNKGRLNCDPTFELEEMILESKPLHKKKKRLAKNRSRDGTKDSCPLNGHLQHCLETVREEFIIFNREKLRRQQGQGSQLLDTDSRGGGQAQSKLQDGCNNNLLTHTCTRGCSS

[9] = target: Mitogen-activated protein kinase kinase kinase 11 (Homo sapiens) (UniProt Q16584); conditions: Compound concentration 1000.0 nM
[10] = target: Phosphatidylinositol 5-phosphate 4-kinase type-2 gamma (Homo sapiens) (UniProt Q8TBX8); conditions: Compound concentration 1000.0 nM
[11] = target: Mitogen-activated protein kinase 13 (Homo sapiens) (UniProt O15264); conditions: Compound concentration 1000.0 nM
Mitogen-activated protein kinase 13 (Homo sapiens), sequence (O15264 whole entry): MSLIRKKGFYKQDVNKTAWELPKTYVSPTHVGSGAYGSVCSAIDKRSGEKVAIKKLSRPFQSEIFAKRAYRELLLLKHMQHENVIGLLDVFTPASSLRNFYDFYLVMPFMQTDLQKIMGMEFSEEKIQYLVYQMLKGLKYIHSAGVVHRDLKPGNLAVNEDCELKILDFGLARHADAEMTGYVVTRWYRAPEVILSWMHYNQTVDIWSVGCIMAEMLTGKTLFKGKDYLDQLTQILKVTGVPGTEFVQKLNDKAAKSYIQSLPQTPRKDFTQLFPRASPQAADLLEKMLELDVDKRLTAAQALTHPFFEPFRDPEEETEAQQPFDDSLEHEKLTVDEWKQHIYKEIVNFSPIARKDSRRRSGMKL

[12] = target: Serine/threonine-protein kinase LATS1 (Homo sapiens) (UniProt O95835); conditions: Compound concentration 1000.0 nM
[13] = target: Serine/threonine-protein kinase 10 (Homo sapiens) (UniProt O94804); conditions: Compound concentration 1000.0 nM
[14] = target: Mitogen-activated protein kinase kinase kinase 5 (Homo sapiens) (UniProt Q99683); conditions: Compound concentration 1000.0 nM
[15] = target: Cyclin-dependent kinase-like 2 (Homo sapiens) (UniProt Q92772); conditions: Compound concentration 1000.0 nM
[16] = target: Kappa-type opioid receptor (Homo sapiens) (UniProt P41145); conditions: Compound concentration 10.0 uM
[17] = target: Mitogen-activated protein kinase kinase kinase kinase 2 (Homo sapiens) (UniProt Q12851); conditions: Compound concentration 1000.0 nM
Mitogen-activated protein kinase kinase kinase kinase 2 (Homo sapiens), sequence (Q12851 whole entry): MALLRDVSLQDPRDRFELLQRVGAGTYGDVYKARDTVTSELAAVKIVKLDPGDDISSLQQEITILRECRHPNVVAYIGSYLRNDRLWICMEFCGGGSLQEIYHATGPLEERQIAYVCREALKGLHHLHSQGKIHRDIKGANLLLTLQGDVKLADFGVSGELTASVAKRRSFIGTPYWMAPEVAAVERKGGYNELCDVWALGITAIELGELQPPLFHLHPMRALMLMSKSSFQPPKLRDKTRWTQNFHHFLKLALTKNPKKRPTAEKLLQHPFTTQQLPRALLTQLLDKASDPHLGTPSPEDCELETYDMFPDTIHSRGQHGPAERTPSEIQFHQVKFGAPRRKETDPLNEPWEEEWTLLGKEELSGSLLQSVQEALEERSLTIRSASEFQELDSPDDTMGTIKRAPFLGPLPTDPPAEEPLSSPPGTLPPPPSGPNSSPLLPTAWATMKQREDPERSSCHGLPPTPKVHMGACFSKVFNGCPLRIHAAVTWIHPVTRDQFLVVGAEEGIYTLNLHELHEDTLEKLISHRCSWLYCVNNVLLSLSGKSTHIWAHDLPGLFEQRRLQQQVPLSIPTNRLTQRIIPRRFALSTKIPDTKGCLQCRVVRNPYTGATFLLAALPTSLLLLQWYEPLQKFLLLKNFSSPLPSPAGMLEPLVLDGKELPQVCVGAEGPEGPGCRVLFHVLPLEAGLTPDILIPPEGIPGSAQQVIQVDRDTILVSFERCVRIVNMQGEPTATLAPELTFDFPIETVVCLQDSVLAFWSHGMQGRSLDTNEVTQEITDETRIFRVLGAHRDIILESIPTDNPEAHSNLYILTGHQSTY

[18] = target: Serine/threonine-protein kinase TNNI3K (Homo sapiens) (UniProt Q59H18); conditions: Compound concentration 1000.0 nM
[19] = target: T1, Alpha-1A adrenergic receptor (Homo sapiens) (UniProt P35348); conditions: Compound concentration 10.0 uM
T1 sequence (whole entry): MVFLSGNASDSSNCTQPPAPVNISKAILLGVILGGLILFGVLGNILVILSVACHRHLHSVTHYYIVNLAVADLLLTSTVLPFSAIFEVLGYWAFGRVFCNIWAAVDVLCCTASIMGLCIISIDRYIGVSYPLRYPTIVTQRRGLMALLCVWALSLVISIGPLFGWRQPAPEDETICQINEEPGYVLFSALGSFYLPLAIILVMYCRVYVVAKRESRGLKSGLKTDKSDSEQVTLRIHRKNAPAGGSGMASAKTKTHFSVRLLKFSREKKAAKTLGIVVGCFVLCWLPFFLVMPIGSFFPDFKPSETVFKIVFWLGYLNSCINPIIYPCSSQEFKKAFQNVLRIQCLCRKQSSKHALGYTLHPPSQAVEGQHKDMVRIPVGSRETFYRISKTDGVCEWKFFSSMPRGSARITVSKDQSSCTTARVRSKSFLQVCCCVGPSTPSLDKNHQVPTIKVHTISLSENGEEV

[20] = target: NT-3 growth factor receptor (Homo sapiens) (UniProt Q16288); conditions: Compound concentration 1000.0 nM
[21] = target: Cyclin-dependent kinase 18 (Homo sapiens) (UniProt Q07002); conditions: Compound concentration 1000.0 nM
Cyclin-dependent kinase 18 (Homo sapiens), sequence (Q07002 whole entry): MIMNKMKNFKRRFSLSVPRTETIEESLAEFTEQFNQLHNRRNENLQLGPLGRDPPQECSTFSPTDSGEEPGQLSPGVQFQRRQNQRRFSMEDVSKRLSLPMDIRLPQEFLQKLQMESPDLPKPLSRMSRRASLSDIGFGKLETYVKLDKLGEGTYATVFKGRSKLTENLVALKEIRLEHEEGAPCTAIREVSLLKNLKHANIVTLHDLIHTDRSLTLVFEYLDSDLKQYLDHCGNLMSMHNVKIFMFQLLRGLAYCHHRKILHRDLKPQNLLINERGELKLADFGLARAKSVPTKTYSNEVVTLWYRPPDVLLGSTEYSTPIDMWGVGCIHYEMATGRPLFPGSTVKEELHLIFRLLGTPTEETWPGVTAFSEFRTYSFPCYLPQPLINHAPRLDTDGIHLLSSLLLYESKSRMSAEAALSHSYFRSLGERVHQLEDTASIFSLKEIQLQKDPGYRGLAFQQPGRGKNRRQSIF

[22] = target: Serine/threonine-protein kinase Sgk1 (Homo sapiens) (UniProt O00141); conditions: Compound concentration 1000.0 nM
Serine/threonine-protein kinase Sgk1 (Homo sapiens), sequence (O00141 whole entry): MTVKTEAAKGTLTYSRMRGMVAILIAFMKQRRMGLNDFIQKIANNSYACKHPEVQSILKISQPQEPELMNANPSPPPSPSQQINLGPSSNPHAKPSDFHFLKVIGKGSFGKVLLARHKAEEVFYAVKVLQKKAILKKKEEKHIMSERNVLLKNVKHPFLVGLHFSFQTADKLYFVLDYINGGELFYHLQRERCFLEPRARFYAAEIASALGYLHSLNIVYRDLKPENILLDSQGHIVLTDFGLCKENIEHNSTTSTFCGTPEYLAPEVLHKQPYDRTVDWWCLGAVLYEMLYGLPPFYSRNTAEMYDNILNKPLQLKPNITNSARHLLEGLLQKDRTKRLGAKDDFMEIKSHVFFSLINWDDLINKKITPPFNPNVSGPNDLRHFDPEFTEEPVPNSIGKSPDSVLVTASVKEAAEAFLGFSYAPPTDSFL

[23] = target: Rhodopsin kinase GRK1 (Homo sapiens) (UniProt Q15835); conditions: Compound concentration 1000.0 nM
[24] = target: 5-hydroxytryptamine receptor 2B (Homo sapiens) (UniProt P41595); conditions: Compound concentration 10.0 uM
[25] = target: Dual specificity protein kinase CLK3 (Homo sapiens) (UniProt P49761); conditions: Compound concentration 1000.0 nM
Dual specificity protein kinase CLK3 (Homo sapiens), sequence (P49761 whole entry, looked up): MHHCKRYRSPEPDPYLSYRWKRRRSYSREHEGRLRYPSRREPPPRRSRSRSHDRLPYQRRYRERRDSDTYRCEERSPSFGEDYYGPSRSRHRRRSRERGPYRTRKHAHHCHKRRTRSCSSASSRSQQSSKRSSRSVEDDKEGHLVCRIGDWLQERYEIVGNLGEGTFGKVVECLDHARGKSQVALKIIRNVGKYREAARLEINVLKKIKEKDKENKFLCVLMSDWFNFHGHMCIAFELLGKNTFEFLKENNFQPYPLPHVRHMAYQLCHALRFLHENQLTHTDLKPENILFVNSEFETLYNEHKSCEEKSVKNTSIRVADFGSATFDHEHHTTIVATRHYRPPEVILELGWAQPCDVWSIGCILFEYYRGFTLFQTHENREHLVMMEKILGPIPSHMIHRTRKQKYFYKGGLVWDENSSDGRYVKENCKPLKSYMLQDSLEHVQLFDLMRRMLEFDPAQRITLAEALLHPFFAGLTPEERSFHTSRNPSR

[26] = target: Serine/threonine-protein kinase DCLK3 (Homo sapiens) (UniProt Q9C098); conditions: Compound concentration 1000.0 nM
Serine/threonine-protein kinase DCLK3 (Homo sapiens), sequence (Q9C098 whole entry): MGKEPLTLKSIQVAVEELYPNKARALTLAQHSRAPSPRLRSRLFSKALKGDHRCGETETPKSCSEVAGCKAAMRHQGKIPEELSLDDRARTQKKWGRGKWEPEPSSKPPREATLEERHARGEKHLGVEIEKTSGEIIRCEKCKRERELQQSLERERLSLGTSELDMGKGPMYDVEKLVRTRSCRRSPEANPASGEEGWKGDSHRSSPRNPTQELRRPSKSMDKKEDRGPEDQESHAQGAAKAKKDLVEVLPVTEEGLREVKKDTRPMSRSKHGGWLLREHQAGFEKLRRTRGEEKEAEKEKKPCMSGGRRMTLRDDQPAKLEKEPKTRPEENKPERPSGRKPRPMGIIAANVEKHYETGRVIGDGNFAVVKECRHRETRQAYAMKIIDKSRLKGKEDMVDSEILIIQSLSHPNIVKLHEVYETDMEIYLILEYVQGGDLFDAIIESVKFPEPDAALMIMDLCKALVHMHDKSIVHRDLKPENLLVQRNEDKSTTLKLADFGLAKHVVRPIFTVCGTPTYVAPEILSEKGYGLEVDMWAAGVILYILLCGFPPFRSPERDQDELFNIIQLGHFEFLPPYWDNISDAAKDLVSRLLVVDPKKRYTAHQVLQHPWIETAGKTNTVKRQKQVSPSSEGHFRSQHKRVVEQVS

[27] = target: Alpha-1B adrenergic receptor (Homo sapiens) (UniProt P35368); conditions: Compound concentration 10.0 uM
[28] = target: Cyclin-dependent kinase 19 (Homo sapiens) (UniProt Q9BWU1); conditions: Compound concentration 1000.0 nM
Cyclin-dependent kinase 19 (Homo sapiens), sequence (Q9BWU1 whole entry): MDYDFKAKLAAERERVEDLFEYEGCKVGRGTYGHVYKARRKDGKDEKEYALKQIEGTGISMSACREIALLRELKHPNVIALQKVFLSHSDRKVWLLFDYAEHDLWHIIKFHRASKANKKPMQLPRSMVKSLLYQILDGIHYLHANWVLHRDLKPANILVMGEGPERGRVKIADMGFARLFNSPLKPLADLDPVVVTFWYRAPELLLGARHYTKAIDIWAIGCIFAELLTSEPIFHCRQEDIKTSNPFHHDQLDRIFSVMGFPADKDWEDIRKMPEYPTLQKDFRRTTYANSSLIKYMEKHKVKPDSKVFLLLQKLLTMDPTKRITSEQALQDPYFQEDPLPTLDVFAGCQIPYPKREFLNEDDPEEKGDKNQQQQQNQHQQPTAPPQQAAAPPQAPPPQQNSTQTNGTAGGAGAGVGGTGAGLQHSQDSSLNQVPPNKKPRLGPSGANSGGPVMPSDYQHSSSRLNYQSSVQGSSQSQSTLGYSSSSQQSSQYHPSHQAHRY

[29] = target: Myosin light chain kinase (Homo sapiens) (UniProt Q32MK0); conditions: Compound concentration 1000.0 nM
[30] = target: Microtubule-associated serine/threonine-protein kinase 1 (Homo sapiens) (UniProt Q9Y2H9); conditions: Compound concentration 1000.0 nM
[31] = test system: Tyrosine-protein kinase ABL1 (Homo sapiens), P00519 [M351T]; conditions: Compound concentration 1000.0 nM
[32] = target: Dual specificity tyrosine-phosphorylation-regulated kinase 2 (Homo sapiens) (UniProt Q92630); conditions: Compound concentration 1000.0 nM
[33] = target: Bone morphogenetic protein receptor type-2 (Homo sapiens) (UniProt Q13873); conditions: Compound concentration 1000.0 nM
[34] = target: Serine/threonine-protein kinase Nek4 (Homo sapiens) (UniProt P51957); conditions: Compound concentration 1000.0 nM

O=C(NCc1ncc(C(F)(F)F)cc1Cl)c1ccc2c(c1)C1(CCS(=O)(=O)CC1)[C@H](C1CC1)N2S(=O)(=O)c1ccc(F)cc1 [BAY-784]
inactive: residual activity [1] 100% | residual activity [2] 100% | residual activity [3] 90% | residual activity [4] 73% | residual activity [5] 100% | residual activity [6] 100% | residual activity [7] 93% | residual activity [8] 100% | residual activity [9] 100% | residual activity [10] 100% | residual activity [11] 99% | residual activity [12] 91% | residual activity [13] 54% | residual activity [14] 100% | residual activity [15] 100% | inhibition [16] 14.4% | residual activity [17] 100% | residual activity [18] 100% | inhibition [19] -0.32% | residual activity [20] 84% | residual activity [21] 100% | residual activity [22] 79% | residual activity [23] 80% | inhibition [24] -2.53% | residual activity [25] 86% | residual activity [26] 92% | inhibition [27] -4.46% | residual activity [28] 100% | residual activity [29] 79% | residual activity [30] 54% | residual activity [31] 91% | residual activity [32] 95% | residual activity [33] 80% | residual activity [34] 99%

O=C(NCc1ncc(C(F)(F)F)cc1Cl)c1ccc2c(c1)C1(CCS(=O)(=O)CC1)[C@@H](C1CC1)N2S(=O)(=O)c1ccc(F)cc1 [BAY-786]
inactive: residual activity [1] 100% | residual activity [2] 95% | residual activity [3] 79% | residual activity [4] 69% | residual activity [5] 89% | residual activity [6] 96% | residual activity [7] 86% | residual activity [8] 96% | residual activity [9] 100% | residual activity [10] 100% | residual activity [11] 86% | residual activity [12] 97% | residual activity [13] 94% | residual activity [14] 100% | residual activity [15] 100% | inhibition [16] 4.54% | residual activity [17] 91% | residual activity [18] 100% | inhibition [19] 1.7% | residual activity [20] 71% | residual activity [21] 100% | residual activity [22] 77% | residual activity [23] 79% | inhibition [24] -2.32% | residual activity [25] 100% | residual activity [26] 69% | inhibition [27] -8.58% | residual activity [28] 100% | residual activity [29] 76% | residual activity [30] 61% | residual activity [31] 94% | residual activity [32] 90% | residual activity [33] 73% | residual activity [34] 99%
